Assay results from patent US20120107246A1, “METHOTREXATE-MODIFIED NANOPARTICLES AND RELATED METHODS” (WASHINGTON, UNIVERSITY OF, priority 2005, published 2012).

Key:
9L cells = assay: leucovorin rescue of 9L cells exposed to free methotrexate; format: cell-based, rat
Source text: Methotrexate induces apoptosis in cells through inhibition of the folic acid cycle by acting on the enzyme, dihydrofolate reductase (DHFR). The substitution of a […] at position four of the pteridine ring transforms the molecule from a substrate of DHFR to a tight binder. […] Leucovorin (folinic acid) is commonly used in high dose chemotherapy to rescue the folic acid cycle in healthy cells and reduce the deleterious side effect of the therapy. Leucovorin rescues the cell cycle by being actively metabolized into reduced folates, increasing the intracellular concentration of the reduced folates within the cytoplasm. […] Previous studies used leucovorin to rescue MCF-7 and HeLa cells following exposure to free methotrexate, but no studies have been reported in using leucovorin for the 9L cell line. Thus, the first step in this study was to determine whether the 9L cells would respond to leucovorin induced rescue following the cellular exposure to free methotrexate.

[1] = in humans; cited from earlier work
HeLa cells = assay: cell viability (surviving fraction) by cell count; conditions: up to 120 hours in culture, nanoparticles 0.01-0.1 mg/mL iron, soluble methotrexate 2 μg/mL
Method: Human breast cancer cells (MCF-7), and human cervical cancer cells (HeLa) were obtained from the Fred Hutchinson Cancer Research Center, Seattle, Wash. Cells were grown in T-75 flasks with RPMI Media (Invitrogen) supplemented with 10% fetal calf serum, 5958 mg/mL HEPES, 300 mg/mL L-Glutamine, 50 ug/mL streptomycin and 50 IU/mL penicillin. Cells were cultured at 37° C. in a humidified atmosphere with 5% CO2 with the medium being changed every third day. The cells were transferred to RPMI-1640 folate free medium (Invitrogen) 24 hours prior to plating. The cells were then subcultured in 24-well plates at a concentration of 25,000 cells/mL in RPMI-1640 folate-free medium. […] In addition, a control media containing soluble methotrexate was prepared at a concentration of 2 μg/mL. Cells were also cultured in 1 mL medium without nanoparticles as the control. The cell culture proceeded for 24, 48, 72, 96, and 120 hours respectively at which time, the cells were washed three times with 1 mL of Hank's Balanced Salt Solution (HBSS, Invitrogen), detached with 500 μL of 0.25% trypsin-EDTA (Sigma), and resuspended in 1 mL of Phosphate Buffered Saline (PBS) supplemented with 10% FBS. Cell viability was determined by cell count via a model Z1 Beckman particle counter.

SMILES: Nc1nc2c(c(=O)[nH]1)N(C=O)C(CNc1ccc(C(=O)N[C@@H](CCC(=O)O)C(=O)O)cc1)CN2 (stereo partly shown) [leucovorin, Leucovorin (folinic acid)]
- leucovorin concentration at which cells showed continued proliferation (9L cells; 9L cells after 2 hours exposure to methotrexate, 48 hours incubation with LV): ≥ 1 µg/mL
- sufficient concentration of LV to ensure cell rescue (9L cells; 9L cells after methotrexate exposure): ~10 µg/mL

SMILES: CN(Cc1cnc2nc(N)nc(N)c2n1)c1ccc(C(=O)N[C@@H](CCC(=O)O)C(=O)O)cc1 [methotrexate, Methotrexate]
- half-life [1]: 2 to 3 h
- reduction in cell viability / cytotoxicity (HeLa cells): slightly higher cytotoxicity
